For orientation: IC50 means the concentration that gives 50% inhibition.

In the first experiment the target is T1, human Prostaglandin D Synthase (GST2) (Homo sapiens, UniProt O60760).
T1 construct: the open reading frame of human Prostaglandin D Synthase was amplified from cDNA; made in house; host or cells: E. coli TOP10F'
T1 sequence (O60760 whole entry): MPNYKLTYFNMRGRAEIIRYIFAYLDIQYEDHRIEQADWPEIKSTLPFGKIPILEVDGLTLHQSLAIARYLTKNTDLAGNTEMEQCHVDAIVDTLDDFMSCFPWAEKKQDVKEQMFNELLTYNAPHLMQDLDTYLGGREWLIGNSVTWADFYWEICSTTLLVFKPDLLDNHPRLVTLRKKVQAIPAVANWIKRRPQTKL
Description: Homogeneous biochemical assay of human Prostaglandin D Synthase (GST2) based on its glutathion-S-transferase activity (GSH conjugation to monochlorobimane, fluorescence).
Conditions: not given
The source says: Homogeneous, Biochemical Assay Monitoring the Activity of Human Prostaglandin D Synthase Based on the Glutathion-S-Transferase Activity of the Enzyme
Prostaglandin D2 synthesis by Prostaglandin D synthase (GST2) requires transfer of Glutathion (GSH) to the substrate, Prostaglandin H2. […] Since the Prostaglandin D2 synthesis is absolutely dependent on the GST activity of the enzyme, assays monitoring the GST activity should allow to identify specific inhibitors of Prostaglandin D2 synthetic activity. The assay principle used is based on enzymatic conjugation of GSH to Monochlorobimane (MCB), that becomes fluorescent upon this chemical modification. Therefore, the enzymatic reaction can be monitored by total fluorescence measurement.
In brief, the open reading frame of human Prostaglandin D Synthase was amplified from cDNA using the primer pair:
This construct allows prokaryotic expression of Prostaglandin D Synthase as fusion protein with a N-terminal hexa-histidine tag, referred to as NHis-Prostaglandin D Synthase.
Expression of NHis-Prostaglandin D Synthase was in E. coli TOP10F′ (Invitrogen, Germany, cat. no. C3030-03). […] When the culture had reached a density corresponding to an A600 of 0.6, an equal volume of room temperature LB/ampicillin was added. […] Cells harvested by centrifugation were resuspended in 50 mM tris(hydroxymethyl)aminomethane hydrochloride pH 7.5 (Tris/HCl, Sigma, cat. no. T5941).
Removal of unbound material was with 100 ml lysis buffer. Elution was with 50 ml of 50 mM Tris/HCl pH 7.5, 300 mM imidazol (Sigma, Germany, cat. no. I2399)/HCl pH 7.5). […] Aliquots were shock frozen in liquid nitrogen and stored at −80° C.
All assay components were diluted in reaction buffer, 50 mM MES/KOH (pH 6.1), 0.7 mM GSH (Sigma, G4251), 2 mM MgCl2 (Sigma, M2670), 0.05% Pluronic F127 (Sigma, P2443), and stored on ice prior to use. Compounds were diluted in 90% DMSO yielding final assay concentrations from the picomolar to three digit micromolar range.
Total fluorescent measurement was carried out with excitation and emission wavelength of 390 and 460 nm, respectively (BMG Fluostar Optima).
Turning to `CCN(CC)C(=O)c1ccc(NC(=O)N2CCN(C(=O)c3cccc(F)c3)CC2)cc1` [Compound 102, 4-(3-Fluoro-benzoyl)-piperazine-1-carboxylic acid (4-diethylcarbamoyl-phenyl)-amide], the IC50 fell in the range of 0.101 to 1 µM.

Staying with this experiment, now noted: given beside the compound name in Examples 1 to 167; read-out: Potency Range (GST2 IC50).
For `COc1ccc2nc(NC(=O)N3CCN(C(=O)c4cccc(F)c4)CC3)sc2c1` [Compound 81, 4-(3-Fluoro-benzoyl)-piperazine-1-carboxylic acid (6-methoxy-benzothiazol-2-yl)-amide], the 50% inhibitory concentration (IC50) was in the range of 0.001 to 0.01 µM.

With `O=C(Nc1nc2ccc(Cl)cc2s1)N1CCN(C(=O)c2cccc(F)c2)CC1` [Compound 82, 4-(3-Fluoro-benzoyl)-piperazine-1-carboxylic acid (6-chloro-benzothiazol-2-yl)-amide], the IC50 lay within 0.001 to 0.01 µM. As to `CCOC(=O)c1ccc2nc(NC(=O)N3CCN(C(=O)c4cccc(F)c4)CC3)sc2c1` [Compound 83, 2-{[4-(3-Fluoro-benzoyl)-piperazine-1-carbonyl]-amino}-benzothiazole-6-carboxylic acid ethyl ester], the IC50 lay within 0.011 to 0.1 µM. `CC(=O)Nc1ccc2nc(NC(=O)N3CCN(C(=O)c4cccc(F)c4)CC3)sc2c1` [Compound 84, 4-(3-Fluoro-benzoyl)-piperazine-1-carboxylic acid (6-acetylamino-benzothiazol-2-yl)-amide]: the IC50 was in the range of 0.011 to 0.1 µM.

In the case of `N#Cc1cc(NC(=O)N2CCN(C(=O)c3cccc(F)c3)CC2)ccc1F` [Compound 85, 4-(3-Fluoro-benzoyl)-piperazine-1-carboxylic acid (3-cyano-4-fluoro-phenyl)-amide], the IC50 was 0.101 to 1 µM. As to `O=C(Nc1cccc(-c2ccncc2)c1)N1CCN(C(=O)c2cccc(F)c2)CC1` [Compound 86, 4-(3-Fluoro-benzoyl)-piperazine-1-carboxylic acid (3-pyridin-4-yl-phenyl)-amide], the IC50 lay within 0.101 to 1 µM. Still for that read-out and setting: the figure for `O=C(Nc1cccc(-c2cccnc2)c1)N1CCN(C(=O)c2cccc(F)c2)CC1` [Compound 87, 4-(3-Fluoro-benzoyl)-piperazine-1-carboxylic acid (3-pyridin-3-yl-phenyl)-amide] is 0.101 to 1 µM; for `O=C(Nc1ccc(Br)c(F)c1)N1CCN(C(=O)c2cccc(F)c2)CC1` [Compound 88, 4-(3-Fluoro-benzoyl)-piperazine-1-carboxylic acid (4-bromo-3-fluoro-phenyl)-amide] it is 0.011 to 0.1 µM. With `O=C(Nc1ccc(-c2cc[nH]n2)cc1)N1CCN(C(=O)c2cccc(F)c2)CC1` [Compound 89, 4-(3-Fluoro-benzoyl)-piperazine-1-carboxylic acid [4-(1H-pyrazol-3-yl)-phenyl]-amide], the 50% inhibitory concentration (IC50) was in the range of 0.011 to 0.1 µM.

On to `Cc1nc(-c2ccc(NC(=O)N3CCN(C(=O)c4cccc(F)c4)CC3)cc2)cs1` [Compound 90, 4-(3-Fluoro-benzoyl)-piperazine-1-carboxylic acid [4-(2-methyl-thiazol-4-yl)-phenyl]-amide], for which the concentration for half-maximal inhibition (IC50) lay within 0.011 to 0.1 µM. Consider `O=C(Nc1ccc(S(=O)(=O)N2CCOCC2)cc1)N1CCN(C(=O)c2cccc(F)c2)CC1` [Compound 91, 4-(3-Fluoro-benzoyl)-piperazine-1-carboxylic acid [4-(morpholine-4-sulfonyl)-phenyl]-amide], for which the IC50 lay in the range of 0.011 to 0.1 µM.

Turning to `O=C(Nc1cccc(S(=O)(=O)N2CCOCC2)c1)N1CCN(C(=O)c2cccc(F)c2)CC1` [Compound 92, 4-(3-Fluoro-benzoyl)-piperazine-1-carboxylic acid [3-(morpholine-4-sulfonyl)-phenyl]-amide], the IC50 lay within 0.101 to 1 µM. The same measure, in the same setting: the figure for `CNC(=O)c1cccc(NC(=O)N2CCN(C(=O)c3cccc(F)c3)CC2)c1` [Compound 93, 4-(3-Fluoro-benzoyl)-piperazine-1-carboxylic acid (3-methylcarbamoyl-phenyl)-amide] is 0.101 to 1 µM; for `COC(=O)c1cc(NC(=O)N2CCN(C(=O)c3cccc(F)c3)CC2)ccc1F` [Compound 94, 2-Fluoro-5-{[4-(3-fluoro-benzoyl)-piperazine-1-carbonyl]-amino}-benzoic acid methyl ester] it is 0.101 to 1 µM; for `COC(=O)c1ccc(NC(=O)N2CCN(C(=O)c3cccc(F)c3)CC2)cc1F` [Compound 95, 2-Fluoro-4-{[4-(3-fluoro-benzoyl)-piperazine-1-carbonyl]-amino}-benzoic acid methyl ester] it is 0.101 to 1 µM.

`O=C(O)c1ccc(NC(=O)N2CCN(C(=O)c3cccc(F)c3)CC2)cc1F` [Compound 96, 2-Fluoro-4-{[4-(3-fluoro-benzoyl)-piperazine-1-carbonyl]-amino}-benzoic acid]: the IC50 lay in the range of 0.101 to 1 µM. On to `O=C(Nc1ccc(C(=O)N2CCOCC2)c(F)c1)N1CCN(C(=O)c2cccc(F)c2)CC1` [Compound 97, 4-(3-Fluoro-benzoyl)-piperazine-1-carboxylic acid [3-fluoro-4-(morpholine-4-carbonyl)-phenyl]-amide], for which the IC50 fell in the range of 0.101 to 1 µM.

For `O=C(Nc1ccc(F)nc1)c1ccc(NC(=O)N2CCN(C(=O)c3cccc(F)c3)CC2)cc1F` [Compound 99, 4-(3-Fluoro-benzoyl)-piperazine-1-carboxylic acid [3-fluoro-4-(6-fluoro-pyridin-3-ylcarbamoyl)-phenyl]-amide], the IC50 lay within 0.101 to 1 µM. In the case of `O=C(O)c1ccc(NC(=O)N2CCN(C(=O)c3cccc(F)c3)CC2)cc1` [Compound 100, 4-{[4-(3-Fluoro-benzoyl)-piperazine-1-carbonyl]-amino}-benzoic acid], the IC50 lay in the range of 0.101 to 1 µM.

For the molecule `O=C(Nc1ccc(F)nc1)c1ccc(NC(=O)N2CCN(C(=O)c3cccc(F)c3)CC2)cc1` [Compound 103, 4-(3-Fluoro-benzoyl)-piperazine-1-carboxylic acid [4-(6-fluoro-pyridin-3-ylcarbamoyl)-phenyl]-amide], the IC50 was 0.101 to 1 µM. Still for that read-out and setting: with `NC(=O)c1ccc(NC(=O)N2CCN(C(=O)c3cccc(F)c3)CC2)cc1F` [Compound 104, 4-(3-Fluoro-benzoyl)-piperazine-1-carboxylic acid (4-carbamoyl-3-fluoro-phenyl)-amide] the figure was 0.101 to 1 µM. `Nc1cccc(NC(=O)N2CCN(C(=O)c3cccc(F)c3)CC2)c1` [Compound 106, 4-(3-Fluoro-benzoyl)-piperazine-1-carboxylic acid (3-amino-phenyl)-amide]: the IC50 fell in the range of 0.101 to 1 µM. With `O=C(Nc1cccc(NC(=O)N2CCN(C(=O)c3cccc(F)c3)CC2)c1)c1ccccn1` [Compound 107, 4-(3-Fluoro-benzoyl)-piperazine-1-carboxylic acid {3-[(pyridine-2-carbonyl)-amino]-phenyl}-amide], the IC50 lay within 0.011 to 0.1 µM. In the case of `O=C(Nc1cccc(NC(=O)N2CCN(C(=O)c3cccc(F)c3)CC2)c1)c1cccc[n+]1[O-]` [Compound 108, 4-(3-Fluoro-benzoyl)-piperazine-1-carboxylic acid {3-[(1-oxy-pyridine-2-carbonyl)-amino]-phenyl}-amide], the IC50 was 0.101 to 1 µM. The same measure, in the same setting: with `O=C(Nc1cccc(NC(=O)N2CCN(C(=O)c3cccc(F)c3)CC2)c1)c1cc[n+]([O-])cc1` [Compound 110, 4-(3-Fluoro-benzoyl)-piperazine-1-carboxylic acid {3-[(1-oxy-pyridine-4-carbonyl)-amino]-phenyl}-amide] the figure was 0.101 to 1 µM; with `O=C(Nc1cccc(NC(=O)N2CCN(C(=O)c3cccc(F)c3)CC2)c1)c1ccc(F)nc1` [Compound 111, 4-(3-Fluoro-benzoyl)-piperazine-1-carboxylic acid {3-[(6-fluoro-pyridine-3-carbonyl)-amino]-phenyl}-amide], 0.101 to 1 µM.

The values are drawn from patent publication US20100234377A1 (priority 2007, published 2010).
